Data set [1] has as its system primary mouse microglia. Put plainly: Response of primary microglia to LPS/IFNγ (nCounter). Particulars: absence of astrocytes, LPS/IFNγ 6 h. It counts as cell-based. The text has this: (§1) FIGS. 5a-m. B4GALT6 in astrocytes regulates the activation of microglia and CNS-infiltrating monocytes. (a) Heatmap depicting mRNA expression, as determined by nCounter Nanostring analysis, in microglia from naïve or EAE NOD mice treated with PDMP or vehicle. Representative data of three independent experiments. Statistical analysis by Student's t-test. (b) qPCR analysis of ccl5, il1b, opn, nos2, cd40, and H2-Aa gene expression relative to Gapdh. (c, d) Mean normalized expression of genes associated with M1- or M2-phenotype in microglia (Table 3) (c) and Ly6C^high monocytes (d). Statistical analysis by Student's t-test. (e-h) primary microglia were pre-treated with PDMP, LacCer, or vehicle, followed by activation with LPS/IFNγ for 6 h or left un-treated (control) as in (FIG. 3a). mRNA expression was determined by nCounter Nanostring analysis (e, g), and microglial viability was determined (f, h). Representative data of five independent experiments. […] RNA was harvested from microglia treated in the absence [MG (pure)] or presence [MG (mixed)] of astrocytes and gene expression was analyzed by qPCR for the expression ccl2, ccl5 and nos2 relative to gapdh. […] Microglia were isolated as in (i), and microglial-nos2 expression was determined by qRT relative to gapdh and presented as in (i). […]

The test system of data set [2] is astrocytes. Put plainly: Viability assay, astrocytes. Type of data set: cell-based, mouse. Conditions: 1 h pre-treatment at indicated concentrations, LPS/IFNγ, 6 h after activation. The method, then:
FIGS. 14a-g. B4GALT6 directly controls astrocyte activation. (a) Cultured astrocytes were pre-treated for 1 h with PDMP (25 μM), LacCer (10 μM), both (LacCer+PDMP), or vehicle control (vehicle), followed by activation with LPS/IFNγ for 6 h, or left un-treated (control, Con). mRNA expression was analyzed 6 h following activation. qPCR analysis of the expression of cc/5, csf2, nos2, il6, H2-Aa, and tlr2 presented relative to gapdh. Statistical analysis by one-way ANOVA, followed by Tukey post-hoc analysis. (b, c) Cultured astrocytes were pre-treated for 1 h with LacCer (b) or PDMP (c), at indicated concentrations, followed by activation with LPS/IFNγ, or left un-treated (control, Con). Cell viability was determined 6 h after activation. […] Astrocytes were then pre-treated for 1 h with PDMP, or vehicle control (vehicle), followed by activation with LPS/IFNγ for 6 h, or left un-treated (control, Con). mRNA expression for H2-Aa, Ccl5 and Cxcl10 was determined; expression is presented as fold induction relative to housekeeping gene (Gapdh). […] (f) NF-κB (P65), GAPDH, and Lamin B expression, in cytoplasmic and nuclear fractions analyzed by western blot. The degree of NF-κB translocation to the nucleus was assessed by the ratio between the expression of P65 in nuclear and cytoplasmic fractions following densitometric quantification on four independent experiments (Right panel). […]

Data set [3] relates to primary mouse microglia. Put plainly: Viability assay, microglia. Type of data set: cell-based. Conditions: absence of astrocytes, LPS/IFNγ.
Text: as §1

“Also recorded” adds a separate entry of the source.

Regarding `CCCCCCCCCC(=O)N[C@H](CN1CCOCC1)[C@H](O)c1ccccc1` [PDMP, D-threo-1-phenyl-2-decanoylamino-3-morpholino-1-propanol], in data set [1], the “response of cultured primary mouse microglia to LPS/IFNγ” value is given as “neither the viability nor the response of cultured primary mouse microglia to LPS/IFNγ was affected”. In addition, the astrocyte viability result in data set [2] is on record as “did not affect astrocyte viability; also recorded: no significant cells death”. Besides, in data set [3], the “viability of cultured primary mouse microglia” value is reported as “neither the viability nor the response of cultured primary mouse microglia to LPS/IFNγ was affected”.

With lactosylceramide [LacCer], the “response of cultured primary mouse microglia to LPS/IFNγ” value in data set [1] was “neither the viability nor the response of cultured primary mouse microglia to LPS/IFNγ was affected”. Also, the astrocyte viability result in data set [2] is reported as “did not affect astrocyte viability; also recorded: no significant cells death”. Further, in data set [3], the “viability of cultured primary mouse microglia” value is listed as “neither the viability nor the response of cultured primary mouse microglia to LPS/IFNγ was affected”.
